The values that follow are results of earlier work, collected in patent US11690524B2, “Assessment of iron deposition post myocardial infarction as a marker of myocardial hemorrhage” (Cedars-Sinai Medical Center, priority 2011, dated 2023).

For data set [1] the following is noted: qualitative statement.
The test system of the next data set is post MI patients. To be noted: 6 months of therapy, TACT trial.

`Cc1c(O)c(=O)ccn1C` [Deferiprone]: in data set [1], the “half-life in plasma / plasma life” value was “longer”.

For the molecule `O=C(O)CN(CCN(CC(=O)O)CC(=O)O)CC(=O)O` [EDTA], the “effect on MACE (major adverse cardiovascular events)” value in the data set with post MI patients was “did not decrease MACE”.

On to `CC(=O)N(O)CCCCCNC(=O)CCC(=O)N(O)CCCCCNC(=O)CCC(=O)N(O)CCCCCN` [deferoxamine], for which the “half-life in plasma / plasma life” value in data set [1] is on record as “short”.
